Where a name gives a salt, the structure may show the parent alone.
Key:
human OX1 receptor = molecular target: T1, human OX1 receptor (Homo sapiens, UniProt O43613); experiment: Measurement of orexin receptor antagonistic activity (calcium fluorescence, FLIPRtetra); format: cell-based; details: CHO, 10 μM test compound; CHO cells expressing human OX1 receptor; OX-A 1 nM; read-out: Human Orexin1 receptor inhibition (at 10 μM)
T1 construct: expressed in transfected cells; host or cells: CHO cells
T1 sequence (O43613 1-425): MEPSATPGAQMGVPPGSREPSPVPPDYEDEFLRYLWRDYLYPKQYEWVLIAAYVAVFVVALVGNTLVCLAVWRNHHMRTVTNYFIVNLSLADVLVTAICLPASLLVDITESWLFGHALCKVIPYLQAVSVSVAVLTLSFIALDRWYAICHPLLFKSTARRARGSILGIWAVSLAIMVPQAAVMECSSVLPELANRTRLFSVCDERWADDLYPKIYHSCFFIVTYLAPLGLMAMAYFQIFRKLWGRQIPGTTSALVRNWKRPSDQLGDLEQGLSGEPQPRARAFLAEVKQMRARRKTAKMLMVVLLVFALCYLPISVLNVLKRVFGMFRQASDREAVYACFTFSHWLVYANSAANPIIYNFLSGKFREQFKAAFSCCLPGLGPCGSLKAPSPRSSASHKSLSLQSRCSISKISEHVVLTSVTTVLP
In short: (§1)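 CHO cells expressing human OX1 or OX2 receptor, cultured one day. Compound in HBSS/20 mM HEPES/0.1% BSA added, then orexin-A at 1 nM final (OX1) or 0.3 nM final (OX2); calcium fluorescence by FLIPRtetra every 1 s for 2 min.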

human OX2 receptor = molecular target: T2, human OX2 receptor (Homo sapiens, UniProt O43614); experiment: as above; format: cell-based; details: CHO, 10 μM test compound; CHO cells expressing human OX2 receptor; OX-A 0.3 nM; read-out: Human Orexin2 receptor inhibition (at 10 μM)
T2 construct: expressed in transfected cells; host or cells: CHO cells
T2 sequence (O43614 1-444): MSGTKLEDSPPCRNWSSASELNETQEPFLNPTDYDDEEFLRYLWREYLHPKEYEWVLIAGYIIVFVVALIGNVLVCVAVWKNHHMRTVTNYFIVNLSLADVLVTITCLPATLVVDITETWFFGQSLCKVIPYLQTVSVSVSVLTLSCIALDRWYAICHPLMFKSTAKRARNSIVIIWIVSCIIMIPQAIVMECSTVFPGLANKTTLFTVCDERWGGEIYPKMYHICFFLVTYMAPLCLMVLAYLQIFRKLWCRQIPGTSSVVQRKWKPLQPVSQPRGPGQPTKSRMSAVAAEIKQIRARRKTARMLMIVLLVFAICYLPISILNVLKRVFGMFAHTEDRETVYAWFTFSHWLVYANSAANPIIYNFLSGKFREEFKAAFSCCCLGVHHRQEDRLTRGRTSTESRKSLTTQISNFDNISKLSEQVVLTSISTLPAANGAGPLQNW
In short: as §1

Row | inhibition at 10 µM (human OX1 receptor) [%] | inhibition at 10 µM (human OX2 receptor) [%] | SMILES
1 | 95 | 99 | CC[C@@H]1CON(c2cc(C)nc(C)n2)CCN1C(=O)c1ccccc1-n1nccn1 [Example 168, ((6R)-2-(2,6-dimethylpyrimidin-4-yl)-6-ethyl-1,2,5-oxadiazepan-5-yl)(2-(2H-1,2,3-triazol-2-yl)phenyl)methanone]
2 | 20 | 100 | Cc1cc(N2CCN(C(=O)c3ccccc3-n3nccn3)[C@@H](C)CO2)nc(C)n1 [Example 170, ((6S)-2-(2,6-dimethylpyrimidin-4-yl)-6-methyl-1,2,5-oxadiazepan-5-yl)(2-(2H-1,2,3-triazol-2-yl)phenyl)methanone]
3 | 103 | 100 | Cc1cc(N2C[C@H](C)N(C(=O)c3ccccc3-n3nccn3)[C@H](C)CO2)nc(C)n1 [Example 172, ((4S,6R)-2-(2,6-dimethylpyrimidin-4-yl)-4,6-dimethyl-1,2,5-oxadiazepan-5-yl)(2-(2H-1,2,3-triazol-2-yl)phenyl)methanone]
4 | 103 | 103 | Cc1nccc(N2C[C@H](C)N(C(=O)c3ccccc3-n3nccn3)[C@H](C)CO2)n1 [Example 173, ((4S,6R)-4,6-dimethyl-2-(2-methylpyrimidin-4-yl)-1,2,5-oxadiazepan-5-yl) (2-(2H-1,2,3-triazol-2-yl)phenyl)methanone]
5 | 95 | 98 | Cc1cc(N2C[C@H](C)N(C(=O)c3ccccc3-n3nccn3)[C@H](C)CO2)ncn1 [Example 174, ((4S,6R)-4,6-dimethyl-2-(6-methylpyrimidin-4-yl)-1,2,5-oxadiazepan-5-yl) (2-(2H-1,2,3-triazol-2-yl)phenyl)methanone]
6 | 99 | 98 | C[C@@H]1CON(c2ccnc(C3CC3)n2)C[C@H](C)N1C(=O)c1ccccc1-n1nccn1 [Example 175, ((4S,6R)-2-(2-cyclopropylpyrimidin-4-yl)-4,6-dimethyl-1,2,5-oxadiazepan-5-yl) (2-(2H-1,2,3-triazol-2-yl)phenyl)methanone]
7 | 103 | 101 | Cc1ccc(-n2nccn2)c(C(=O)N2[C@H](C)CON(c3cc(C)nc(C)n3)C[C@@H]2C)c1 [Example 176, ((4S,6R)-2-(2,6-dimethylpyrimidin-4-yl)-4,6-dimethyl-1,2,5-oxadiazepan-5-yl)(5-methyl-2-(2H-1,2,3-triazol-2-yl)phenyl)methanone]
8 | 102 | 106 | Cc1ccc(-n2nccn2)c(C(=O)N2[C@H](C)CON(c3cc(C)nc(C(F)(F)F)n3)C[C@@H]2C)c1 [Example 177, ((4S,6R)-4,6-dimethyl-2-(6-methyl-2-(trifluoromethyl)pyrimidin-4-yl)-1,2,5-oxadiazepan-5-yl) (5-methyl-2-(2H-1,2,3-triazol-2-yl)phenyl)methanone]
9 | 105 | 99 | Cc1ccc(-n2nccn2)c(C(=O)N2[C@H](C)CON(c3cc(C(F)(F)F)nc(C)n3)C[C@@H]2C)c1 [Example 178, ((4S,6R)-4,6-dimethyl-2-(2-methyl-6-(trifluoromethyl)pyrimidin-4-yl)-1,2,5-oxadiazepan-5-yl) (5-methyl-2-(2H-1,2,3-triazol-2-yl)phenyl)methanone]
10 | 102 | 98 | Cc1ccc(-n2nccn2)c(C(=O)N2[C@H](C)CON(c3cc(C(F)F)nc(C)n3)C[C@@H]2C)c1 [Example 179, ((4S,6R)-2-(6-(difluoromethyl)-2-methylpyrimidin-4-yl)-4,6-dimethyl-1,2,5-oxadiazepan-5-yl) (5-methyl-2-(2H-1,2,3-triazol-2-yl)phenyl)methanone]

Second part, the molecule before the results:

Row | SMILES | inhibition at 10 µM (human OX1 receptor) [%] | inhibition at 10 µM (human OX2 receptor) [%]
11 | COc1cccc(N2CCN(C(=O)c3ccccc3-n3nccn3)[C@H](C)CO2)n1 [Example 157, ((6R)-2-(6-methoxypyridin-2-yl)-6-methyl-1,2,5-oxadiazepan-5-yl)(2-(2H-1,2,3-triazol-2-yl)phenyl)methanone] | 93 | 91
12 | C[C@@H]1CON(c2cccc(CO)n2)CCN1C(=O)c1ccccc1-n1nccn1 [Example 158, ((6R)-2-(6-(hydroxymethyl)pyridin-2-yl)-6-methyl-1,2,5-oxadiazepan-5-yl)(2-(2H-1,2,3-triazol-2-yl)phenyl)methanone] | 18 | 99
13 | COc1ncnc(N2CCN(C(=O)c3ccccc3-n3nccn3)[C@H](C)CO2)n1 [Example 159, ((6R)-2-(4-methoxy-1,3,5-triazin-2-yl)-6-methyl-1,2,5-oxadiazepan-5-yl)(2-(2H-1,2,3-triazol-2-yl)phenyl)methanone] | 16 | 89
14 | COc1cc(N2CCN(C(=O)c3ccccc3-n3nccn3)[C@H](C)CO2)nc(C)n1 [Example 160, ((6R)-2-(6-methoxy-2-methylpyrimidin-4-yl)-6-methyl-1,2,5-oxadiazepan-5-yl)(2-(2H-1,2,3-triazol-2-yl)phenyl)methanone] | 82 | 101
15 | Cc1cc(C)nc(N2CCN(C(=O)c3cc(F)ccc3-n3nccn3)[C@H](C)CO2)n1 [Example 161, ((6R)-2-(4,6-dimethylpyrimidin-2-yl)-6-methyl-1,2,5-oxadiazepan-5-yl)(5-fluoro-2-(2H-1,2,3-triazol-2-yl)phenyl)methanone hydrochloride] | 46 | 102
16 | Cc1cc(N2CCN(C(=O)c3cc(F)ccc3-n3nccn3)[C@H](C)CO2)nc(C)n1 [Example 162, ((6R)-2-(2,6-dimethylpyrimidin-4-yl)-6-methyl-1,2,5-oxadiazepan-5-yl)(5-fluoro-2-(2H-1,2,3-triazol-2-yl)phenyl)methanone] | 42 | 100
17 | Cc1cc(C#N)nc(N2CCN(C(=O)c3cc(F)ccc3-n3nccn3)[C@H](C)CO2)n1 [Example 163, 2-((6R)-5-(5-fluoro-2-(2H-1,2,3-triazol-2-yl)benzoyl)-6-methyl-1,2,5-oxadiazepan-2-yl)-6-methylpyrimidine-4-carbonitrile] | 61 | 102
18 | Cc1csc(N2CCN(C(=O)c3cc(F)ccc3-n3nccn3)[C@H](C)CO2)n1 [Example 164, (5-fluoro-2-(2H-1,2,3-triazol-2-yl)phenyl)((6R)-6-methyl-2-(4-methyl-1,3-thiazol-2-yl)-1,2,5-oxadiazepan-5-yl)methanone] | 8 | 43
19 | C[C@@H]1CON(c2ncnc3ccn(C)c23)CCN1C(=O)c1cc(F)ccc1-n1nccn1 [Example 165, (5-fluoro-2-(2H-1,2,3-triazol-2-yl)phenyl)((6R)-6-methyl-2-(5-methyl-5H-pyrrolo[3,2-d]pyrimidin-4-yl)-1,2,5-oxadiazepan-5-yl)methanone] | 24 | 24
20 | Cc1nc(N2CCN(C(=O)c3cc(F)ccc3-n3nccn3)[C@H](C)CO2)nc(C)c1F [Example 166, ((6R)-2-(5-fluoro-4,6-dimethylpyrimidin-2-yl)-6-methyl-1,2,5-oxadiazepan-5yl)(5-fluoro-2-(2H-1,2,3-triazol-2-yl)phenyl)methanone] | 81 | 97
21 | Cc1nc(N2CCN(C(=O)c3cc(F)ccc3-n3nccn3)[C@H](C)CO2)nc(C)c1Cl [Example 167, ((6R)-2-(5-chloro-4,6-dimethylpyrimidin-2-yl)-6-methyl-1,2,5-oxadiazepan-5-yl)(5-fluoro-2-(2H-1,2,3-triazol-2-yl)phenyl)methanone] | 100 | 98
22 | CC[C@@H]1CON(c2cc(C)nc(C)n2)CCN1C(=O)c1ccccc1-c1nccs1 [Example 169, ((6R)-2-(2,6-dimethylpyrimidin-4-yl)-6-ethyl-1,2,5-oxadiazepan-5-yl)(2-(1,3-thiazol-2-yl)phenyl)methanone] | 100 | 99
23 | Cc1cc(N2CCN(C(=O)c3ccccc3-c3nccs3)[C@@H](C)CO2)nc(C)n1 [Example 171, ((6S)-2-(2,6-dimethylpyrimidin-4-yl)-6-methyl-1,2,5-oxadiazepan-5-yl)(2-(1,3-thiazol-2-yl)phenyl)methanone] | 37 | 102

Source: patent publication US10131653B2, “Heterocyclic compound” (TAKEDA PHARMACEUTICAL COMPANY LIMITED, priority 2015, dated 2018)
